This note sets out measurements from patent publication US9133148B2, “Carbamate compounds and of making and using same” (Abide Therapeutics, Inc., priority 2012, dated 2015).

For one experiment, the target named is ABHD6 (Mus musculus (Mouse), UniProt Q8R2Y0). Kind of experiment: In vitro competitive activity-based protein profiling (FP-Rh), mouse ABHD6. Format: biochemical. Particulars: mouse brain membrane proteome, competitive ABPP. On the procedure:
(§1) In Vitro Competitive Activity-Based Protein Profiling.
(§2) Proteomes (mouse brain membrane fraction or cell lysates) ([…], 1.0 mg/mL total protein concentration) were preincubated with varying concentrations of inhibitors at 37° C. After 30 min, FP-Rh (1.0 μL, 50 μM in DMSO) was added and the mixture was incubated for another 30 min at 37° C. Reactions were quenched with SDS loading buffer (50 μL—4×) and run on SDS-PAGE.

In the next experiment the target is MAGL (Mus musculus (Mouse), UniProt O35678). Kind of experiment: In vitro competitive activity-based protein profiling (FP-Rh), mouse MAGL. The following applies: mouse brain membrane proteome, competitive ABPP. Format: biochemical. On the procedure:
as §1, §2

Another experiment addresses Mouse brain MAGL (Mus musculus (Mouse), UniProt O35678). The experiment in a line: Mouse brain proteomes from inhibitor treated mice (oral gavage, ABPP of brain MAGL). The class given is in vivo. The following applies: 20 mg/kg, 4 h following administration. The protocol: Preparation of Mouse Brain Proteomes from Inhibitor Treated Mice.
Inhibitors were administered to wild-type C57Bl/6J by oral gavage in a vehicle of polyethylene glycol.

The target of another experiment is FAAH (Mus musculus (Mouse), UniProt O08914). The experiment in a line: In vitro competitive activity-based protein profiling (FP-Rh), mouse FAAH. The class given is biochemical. The following applies: mouse brain membrane proteome, competitive ABPP. The protocol:
as §1, §2

The next experiment deals with Human MAGL (Homo sapiens (Human), UniProt Q99685). Kind of experiment: Competitive ABPP with recombinant human MAGL expressed in HEK293T cells. The class given is biochemical. The following applies: hMAGL in HEK293T cell lysates. On the procedure: as §2
Chain of Human MAGL (Q99685 whole entry): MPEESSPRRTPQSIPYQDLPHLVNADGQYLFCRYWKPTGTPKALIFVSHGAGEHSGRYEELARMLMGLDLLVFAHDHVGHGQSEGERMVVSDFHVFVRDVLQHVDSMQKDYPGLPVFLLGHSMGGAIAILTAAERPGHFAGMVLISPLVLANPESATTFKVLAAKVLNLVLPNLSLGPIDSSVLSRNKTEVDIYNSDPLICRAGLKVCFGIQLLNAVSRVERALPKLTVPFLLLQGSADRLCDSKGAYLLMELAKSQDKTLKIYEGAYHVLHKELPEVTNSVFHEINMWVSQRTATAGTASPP
Recombinant Expression of Human MAGL in HEK293T Cells.
Cell lysates were diluted with mock proteomes for use in competitive ABPP experiments.

The structures appear in SMILES notation. pIC50: −log10 of the molar value.

Chain of Mouse brain MAGL (O35678 whole entry): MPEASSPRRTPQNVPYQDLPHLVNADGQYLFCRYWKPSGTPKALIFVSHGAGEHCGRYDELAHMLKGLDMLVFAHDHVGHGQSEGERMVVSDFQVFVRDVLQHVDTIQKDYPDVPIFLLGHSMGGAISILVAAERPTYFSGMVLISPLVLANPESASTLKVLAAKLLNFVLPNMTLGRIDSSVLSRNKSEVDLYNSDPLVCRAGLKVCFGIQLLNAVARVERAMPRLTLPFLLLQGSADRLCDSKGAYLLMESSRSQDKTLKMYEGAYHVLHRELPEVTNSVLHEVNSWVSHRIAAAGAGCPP
Chain of MAGL (O35678 whole entry): as above
Chain of ABHD6 (Q8R2Y0 whole entry): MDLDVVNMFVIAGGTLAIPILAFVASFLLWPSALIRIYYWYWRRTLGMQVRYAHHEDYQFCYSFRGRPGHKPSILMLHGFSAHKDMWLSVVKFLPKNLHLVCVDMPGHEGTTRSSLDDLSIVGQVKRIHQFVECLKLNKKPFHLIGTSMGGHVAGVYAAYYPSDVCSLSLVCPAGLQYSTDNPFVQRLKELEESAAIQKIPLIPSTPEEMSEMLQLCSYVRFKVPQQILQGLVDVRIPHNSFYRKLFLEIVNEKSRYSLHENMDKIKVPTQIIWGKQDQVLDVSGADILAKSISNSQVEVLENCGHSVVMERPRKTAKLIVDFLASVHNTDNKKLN
Chain of FAAH (O08914 whole entry): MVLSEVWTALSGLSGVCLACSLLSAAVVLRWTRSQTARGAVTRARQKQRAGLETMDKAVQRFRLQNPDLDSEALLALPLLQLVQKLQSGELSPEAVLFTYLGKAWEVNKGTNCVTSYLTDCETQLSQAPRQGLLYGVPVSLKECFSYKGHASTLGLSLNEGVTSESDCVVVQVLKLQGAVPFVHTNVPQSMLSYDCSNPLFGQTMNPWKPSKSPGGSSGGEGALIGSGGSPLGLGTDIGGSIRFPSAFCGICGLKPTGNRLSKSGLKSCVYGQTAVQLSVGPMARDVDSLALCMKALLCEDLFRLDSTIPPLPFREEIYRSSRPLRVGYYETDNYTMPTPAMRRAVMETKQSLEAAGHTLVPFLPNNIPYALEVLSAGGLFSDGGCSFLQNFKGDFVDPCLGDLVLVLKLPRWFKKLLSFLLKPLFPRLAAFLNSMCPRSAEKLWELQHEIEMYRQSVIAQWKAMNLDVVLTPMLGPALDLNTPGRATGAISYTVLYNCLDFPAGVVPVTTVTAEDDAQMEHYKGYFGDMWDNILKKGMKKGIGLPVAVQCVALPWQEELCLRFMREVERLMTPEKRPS

What is called IC50 is the concentration at which inhibition is half-maximal. The pIC50 is the IC50 on a negative log10 scale, so that one unit is a factor of ten. Take `O=C(OC(C(F)(F)F)C(F)(F)F)N1CCN(Cc2cccc(Oc3ccccc3)c2)CC1` [Example 3a, 1,1,1,3,3,3-hexafluoropropan-2-yl 4-(3-phenoxybenzyl)piperazine-1-carboxylate]: the IC50 is less than 100 nM on ABHD6, less than 100 nM at MAGL and greater than 10000 nM at FAAH. Also, the “Mouse brain MAGL (% inhibition at 20 mg/kg, p.o.)” value at Mouse brain MAGL is reported as greater than 95%. Also, the pIC50 on Human MAGL is greater than 7.00.
